Read-outs that look alike come from different tables or passages of the source.
Experiments:
hMC4-R [1] = target: T1, hMC4-R (Homo sapiens (Human), UniProt P32245); test: Competitive inhibition binding assay using [I125]-NDP-α-MSH, hMC4-R; settings: membranes of HEK-293 cells expressing recombinant hMC4-R, read-out: MC4-R Ki
hMC4-R [2] = target: T1, hMC4-R; test: High and low density hMC4-R functional assay (cAMP, HEK293-T-REx-MC4-R cells); assay type: cell-based; settings: for Emax: NDP-α-MSH = 100%, read-out: Intrinsic Activity (%)
[3] = Food intake and body weight change; assay type: in vivo, Sprague-Dawley rats; settings: male rats, 1.0 mg/kg s.c., mean ± SEM; for BW change 0-24 h: body weight; for FI 0-4 h / FI 0-24 h: food intake
Protocol: 7.4 Food Intake and Body Weight Change.
Change in food intake and body weight was evaluated for selected peptides administered by subcutaneous injection route. Male Sprague-Dawley rats were obtained from Hilltop Lab Animals, Inc. (Scottdale, Pa.). Animals were individually housed in conventional polystyrene hanging cages and maintained on a controlled 12 hour on/off light cycle. Water and pelleted food (ProLab RMH 2500, W.F. Fisher & Son Inc.) was provided ad libitum. The rats were dosed subcutaneously with vehicle (3.2% mannitol/50 mM Tris buffer) or selected peptides (1.0 mg/kg). The changes in food intake for the 4 and 24 hour periods after dosing and the changes in body weight for the 24 hour period after dosing were determined. The changes in body weight and food intake for the 48 hour and 72 hour periods after dosing was also measured to determine reversal of changes in body weight and food intake effects back to baseline levels (not shown).

[4] = in vivo, sc
Protocol: 7.5 Induction of Penile Erection.
(§1) The ability of peptides of the present invention to induce penile erection (PE) in male rats was evaluated with selected peptides. Male Sprague-Dawley rats weighing 250-300 g were kept on a 12 hour on/off light cycle with food and water ad libitum. All behavioral studies were performed between 9 a.m. and 4 p.m.
(§2) Corresponding vehicle controls (3.2% mannitol/50 mM Tris buffer) were run in parallel.

[5] = Induction of penile erection; settings: male rats; for % Responders: rats showing at least one erection; for Total number of PE/rat 0-1 h: mean ± SEM
Protocol: 7.5 Induction of Penile Erection.
as §1, §2

MC1-R = test: Competitive inhibition binding assay using [I125]-NDP-α-MSH, MC1-R; settings: membranes of B-16 mouse melanoma cells (endogenous MC1-R), in some instances HEK-293 hMC1-R
Procedure, shortened: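 Radioligand displacement on membranes from B-16 mouse melanoma cells (endogenous MC1-R) or HEK-293 expressing recombinant hMC1-R, with 0.1 nM [I125]-NDP-α-MSH and increasing peptide concentrations in HEPES pH 7.5 buffer, 60 min at 37° C.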

[6] = 0.1 ng/mL Doxycycline (low density hMC4-R system)
[7] = 10 ng/mL Doxycycline (high density hMC4-R system)

T1 sequence (P32245 whole entry): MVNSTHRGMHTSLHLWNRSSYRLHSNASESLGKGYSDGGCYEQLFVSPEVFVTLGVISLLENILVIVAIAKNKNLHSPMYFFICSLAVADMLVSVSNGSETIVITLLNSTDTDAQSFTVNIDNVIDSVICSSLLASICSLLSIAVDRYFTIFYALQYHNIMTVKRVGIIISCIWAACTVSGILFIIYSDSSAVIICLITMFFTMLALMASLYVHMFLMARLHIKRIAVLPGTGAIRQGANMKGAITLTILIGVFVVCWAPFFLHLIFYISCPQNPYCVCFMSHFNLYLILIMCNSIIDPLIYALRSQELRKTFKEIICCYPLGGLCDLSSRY

| SMILES | Ki (hMC4-R [1]) [nM] | Emax (hMC4-R [2]; [6]) [%] | Emax (hMC4-R [2]; [7]) [%] | BW change 0-24 h [3] [g] | FI 0-4 h [3] [g] | FI 0-24 h [3] [g] | Total number of PE/rat 0-1 h ([4]; 1 mg/kg) | Total number of PE/rat 0-1 h ([4]; 3 mg/kg) | % Responders ([5]; 1.0 mg/kg s.c.) [%] | % Responders ([5]; 3.0 mg/kg s.c.) [%] | Ki (MC1-R) [nM] | EC50 (hMC4-R [2]; [6]) [nM] | EC50 (hMC4-R [2]; [7]) [nM] | Total number of PE/rat 0-1 h ([5]; 1.0 mg/kg s.c.) | Total number of PE/rat 0-1 h ([5]; 3.0 mg/kg s.c.) |
| --- | --- | --- | --- | --- | --- | --- | --- | --- | --- | --- | --- | --- | --- | --- | --- |
| CC(=O)N[C@@H](CCCNC(=N)N)C(=O)N[C@H]1CCC(=O)NCCC[C@@H](C(N)=O)NC(=O)[C@H](Cc2c[nH]c3ccccc23)NC(=O)[C@H](CCCNC(=N)N)NC(=O)[C@@H](Cc2ccc(C#N)cc2)NC(=O)[C@H](CCC(N)=O)NC1=O [Example 46, Ac-Arg-cyclo(Glu-Gln-D-Phe(4-CN)-Arg-Trp-Orn)-NH2] | 4 | 40 | 97 | -0.29 ± 0.55 | 3.71 ± 0.68 | 20.56 ± 1.14 | 4.9 ± 1.1 | 4.4 ± 1.1 | 100 | 86 | – | – | – | – | – |
| CC(=O)N[C@@H](CCCNC(=N)N)C(=O)N[C@H]1CCC(=O)NCCC[C@@H](C(N)=O)NC(=O)[C@H](Cc2c[nH]c3ccccc23)NC(=O)[C@H](CCCNC(=N)N)NC(=O)[C@@H](Cc2ccc(F)cc2)NC(=O)[C@@H]2CCCN2C1=O [Example 67, Ac-Arg-cyclo(Glu-Pro-D-Phe(4-F)-Arg-Trp-Orn)-NH2] | 5 | 38 | 99 | -0.05 ± 0.39 | 4.20 ± 0.66 | 21.51 ± 1.27 | – | – | 86 | 100 | 130 | 1 | 0.14 | 2.3 ± 0.42 | 3.3 ± 1.0 |
